{"source": "paper PMC10375191", "about": "“Transformable Neuropeptide Prodrug with Tumor Microenvironment Responsiveness for Tumor Growth and Metastasis Inhibition of Triple‐Negative Breast Cancer” (Advanced Science, 2023)", "key": {"[1]": {"tested_on": "MDA‐MB‐231 xenograft model", "assay": "In vivo antitumor evaluation, MDA-MB-231 xenograft", "design": "species or system mouse", "conditions": "MDA-MB-231 tumor-bearing nude mice; DOX-P18 up to 100 mg kg^−1 (20 mg kg^−1 DOX); DOX at 10 and 20 mg kg^−1", "source_text": "(§1) All the animal experimental procedures were recognized and approved by the Regional Ethics Committee for Animal Experiments at Ningbo University, China (Permit NO. SYXK (Zhe) 2019‐0005). The triple‐negative breast cancer (TNBC) xenograft tumors were established on female BALB/c nude mice (≈15 g) by subcutaneous injection of MDA‐MB‐231 cells (5 × 10^6 cells in each mouse). TNBC metastasis models were constructed by injecting MDA‐MB‐231‐luc cells (1 × 10^5 cells in each mouse) through the tail vein to female BALB/c nude mice. The day that MDA‐MB‐231‐luc was injected was set as D0. In vivo imaging system (IVIS) (Lumina XRMS Ш, PerkinElmer, USA) was utilized to identify the tumor metastasis at D12.\nWhen the tumor volume of BALB/c mice reached ≈70 mm^3 (V = L × W × W/2), the tumor‐bearing mice were randomly divided into seven groups (n = 5 for each group). […] 100 µL drug was injected intravenously through the tail vein every other day for a total of five times. The day that the first injection was given was set as D0. Tumor size and mouse weight were measured every 2 days from the day that treatment started until D26."}, "[2]": {"tested_on": "healthy ICR mice", "assay": "Maximum tolerated dose / acute toxicity study", "source_text": "Animal survival of each group (n = 10, 5 female and 5 male) was continuously recorded for 14 days. Eventually, the evaluation and calculation of the median lethal dose (LD50) were completed with these collected data using the Bliss rule."}, "[3]": {"tested_on": "MDA‐MB‐231 metastasis model", "assay": "Anti-metastasis evaluation, MDA-MB-231 metastasis model", "assay_type": "in vivo, mouse", "conditions": "MDA-MB-231 metastasis model, DOX 5 mg kg^−1", "source_text": "as §1\nFor the TNBC metastasis model, two kinds of treatments were developed. […] After seven times of injections, continued observation of the mice was carried out. […] In vivo imaging system (IVIS Lumina XRMS Ш, PerkinElmer, USA) was utilized again to estimate the tumor metastasis at D26. Meanwhile, the mice were sacrificed and the main organs (heart, livers, spleen, lung, and kidney) were separated for histological analysis."}, "[4]": {"tested_on": "MDA‐MB‐231 cells", "assay": "CCK-8 cell viability assay, MDA-MB-231", "assay_type": "cell-based, human", "protocol": "(§2) MDA‐MB‐231 cells were incubated in 96‐well plates for 24 h (1 × 10^4 cells per well). […] At the appointed time, 10 µL CCK‐8 solution was dropped into each well and further co‐incubated with treated cells for 2 h. The absorbance values at 450 nm were measured by an automated plate reader (iMark (168‐1130), Biorad, USA). The IC50 values were obtained from Microsoft Excel's FORECAST formula."}, "[5]": {"tested_on": "MCF‐7 cells", "assay": "CCK-8 cell viability assay, MCF-7", "assay_type": "cell-based, human", "conditions": "MCF-7, 24 h", "protocol": "as §2\nbreast cancer cell line MCF-7 after 24 h incubation. Data are presented as means ±\nstandard deviations (n = 3).\n(§3) (1 picture or pasted object on this page, not shown here)"}, "[6]": {"tested_on": "MCF‐10A cells", "assay": "CCK-8 cell viability assay, MCF-10A", "assay_type": "cell-based, human", "conditions": "24 h", "protocol": "as §2\nmammary epithelial cell line MCF-10A after 24 h incubation. Data are presented as\nmeans ± standard deviations (n = 3).\nas §3"}, "[7]": {"assay": "Morphological transformation / particle size by DLS and TEM in PBS of different pH", "assay_type": "physicochemical", "conditions": "TEM, PBS pH 6.5"}}, "note": "Starred links: 1 amine or outer side, 2 acyl side, 3 side chain; linkers in the order of their positions; H or OH if unused. Residues, ends and D or L forms follow the SMILES beside them. *: point of attachment. Doxorubicin(3'-N) = COc1cccc2c1C(=O)c1c(O)c3c(c(O)c1C2=O)C[C@@](O)(C(=O)CO)C[C@@H]3O[C@H]1C[C@H](N*)[C@H](O)[C@H](C)O1; Suc = O=C(CCC(=O)[*:2])[*:1]", "data": [{"compound": "COc1cccc2c1C(=O)c1c(O)c3c(c(O)c1C2=O)C[C@@](O)(C(=O)CO)C[C@@H]3O[C@H]1C[C@H](N)[C@H](O)[C@H](C)O1", "note": "[DOX, doxorubicin, reference compound]", "values": [{"measurement": "Death / body weight in tumor-bearing mice", "setting": "[1]", "result": "cause death"}, {"measurement": "Histological analysis of major organs", "setting": "[2]; 14 days after single dose, 40 mg kg^−1 DOX (or DOX equivalent)", "result": "disordered arrangement of myofilaments, glomerulosclerosis, and protein casts"}, {"measurement": "Blood biochemistry: ALT and ALP activity", "setting": "[2]; 14 days after single injection, with increasing dose, n = 3", "result": "gradually decreased"}, {"measurement": "Survival in metastasis model", "setting": "[3]", "result": "no mice survived up to day 14 (D14)"}]}, {"compound": "COc1cccc2c1C(=O)c1c(O)c3c(c(O)c1C2=O)C[C@@](O)(C(=O)CO)C[C@@H]3O[C@H]1C[C@H](NC(=O)CCC(=O)N2CCC[C@H]2C(=O)N[C@@H](CC(C)C)C(=O)NCC(=O)O)[C@H](O)[C@H](C)O1", "note": "[DOX‐P3]", "values": [{"measurement": "IC50 with extended incubation time", "setting": "[4]; MDA-MB-231, 36 and 48 h versus 24 h", "result": "further reduced"}]}, {"compound": "CC[C@H](C)[C@H](NC(=O)[C@@H]1CCCN1C(=O)[C@H](CC(N)=O)NC(=O)[C@H](CC(N)=O)NC(=O)[C@H](Cc1ccc(O)cc1)NC(=O)[C@H](Cc1c[nH]cn1)NC(=O)[C@H](CCCNC(=N)N)NC(=O)[C@@H](NC(=O)[C@H](CCCNC(=N)N)NC(=O)CNC(=O)CNC(=O)[C@H](CC(C)C)NC(=O)[C@@H]1CCCN1C(=O)CCC(=O)N[C@H]1C[C@H](O[C@H]2C[C@](O)(C(=O)CO)Cc3c(O)c4c(c(O)c32)C(=O)c2c(OC)cccc2C4=O)O[C@@H](C)[C@H]1O)C(C)C)C(=O)N[C@@H](Cc1c[nH]c2ccccc12)C(=O)N[C@@H](CCCNC(=N)N)C(=O)N[C@@H](CCC(N)=O)C(=O)N[C@@H](CCCNC(=N)N)C(=O)N[C@@H](Cc1ccc(O)cc1)C(N)=O", "note": "[DOX‐P18R] ({Doxorubicin(3'-N)-Suc}-PLGGRVRHYNNPIWRQRY-NH2)", "values": [{"measurement": "IC50 (cytotoxicity), in words", "setting": "[5]", "result": "particularly high IC50 values"}, {"measurement": "IC50 (cytotoxicity), in words", "setting": "[4]; MDA-MB-231, 24 h", "result": "particularly high IC50 values"}, {"measurement": "IC50 (cytotoxicity), in words", "setting": "[6]", "result": "particularly high IC50 values"}]}, {"compound": "CC[C@H](C)[C@H](NC(=O)[C@@H]1CCCN1C(=O)[C@H](CC(N)=O)NC(=O)[C@H](CC(N)=O)NC(=O)[C@H](Cc1ccc(O)cc1)NC(=O)[C@H](Cc1c[nH]cn1)NC(=O)[C@H](CCCNC(=N)N)NC(=O)CNC(=O)[C@H](CCCNC(=N)N)NC(=O)[C@@H](N)C(C)C)C(=O)N[C@@H](Cc1c[nH]c2ccccc12)C(=O)N[C@@H](CCCNC(=N)N)C(=O)N[C@@H](CCC(N)=O)C(=O)N[C@@H](CCCNC(=N)N)C(=O)N[C@@H](Cc1ccc(O)cc1)C(N)=O", "note": "[P15] (H-VRGRHYNNPIWRQRY-NH2)", "values": [{"measurement": "Morphology by TEM", "setting": "[7]", "result": "fibroid aggregations"}]}]}
